Data from PubChem BioAssay (NCI).
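Where inhibition never reached the appropriate level, the endpoint shown equals the highest concentration tested. Otherwise, values were interpolated linearly from a five-concentration, 48-hour dose response in 96-well plates. The concentration for 50% growth inhibition is given as GI50. TGI is the concentration that stops growth completely.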

How the values were obtained:
Experiment in all cases: inhibition of tumour cell growth, NCI panel, 48 h
HCT-15 colon = tested on: HCT-15 colon
NCI-H522 lung = tested on: NCI-H522 lung
RPMI-8226 leukemia = tested on: RPMI-8226 leukemia
HS 578T breast = tested on: HS 578T breast
K-562 leukemia = tested on: K-562 leukemia
MDA-MB-231 breast = tested on: MDA-MB-231 breast
SK-OV-3 ovarian = tested on: SK-OV-3 ovarian
OVCAR-8 ovarian = tested on: OVCAR-8 ovarian
EKVX NSCLC = tested on: EKVX NSCLC
DU-145 prostate = tested on: DU-145 prostate

Structure (SMILES) | GI50 (HCT-15 colon) [µM] | TGI (HCT-15 colon) [µM] | GI50 (NCI-H522 lung) [µM] | TGI (NCI-H522 lung) [µM] | GI50 (RPMI-8226 leukemia) [µM] | TGI (RPMI-8226 leukemia) [µM] | GI50 (HS 578T breast) [µM] | TGI (HS 578T breast) [µM] | GI50 (K-562 leukemia) [µM] | TGI (K-562 leukemia) [µM] | GI50 (MDA-MB-231 breast) [µM] | TGI (MDA-MB-231 breast) [µM] | GI50 (SK-OV-3 ovarian) [µM] | TGI (SK-OV-3 ovarian) [µM] | GI50 (OVCAR-8 ovarian) [µM] | TGI (OVCAR-8 ovarian) [µM] | GI50 (EKVX NSCLC) [µM] | TGI (EKVX NSCLC) [µM] | GI50 (DU-145 prostate) [µM] | TGI (DU-145 prostate) [µM]
Cn1cnc([N+](=O)[O-])c1Sc1ncnc2c1ncn2C1OC(CO)C(O)C1O (centres undefined) | 11.6 | > 100 | 9.62 | > 100 | 2.93 | > 100 | 27.8 | > 100 | 3.35 | > 100 | 9.62 | > 100 | 0.564 | > 100 | 6.19 | > 100 | 86.2 | > 100 | 1.87 | > 100
O=Cc1coc2ccccc2c1=O |  | 37.4 |  | 48.1 |  | 52.1 |  | 53.4 |  | 55.5 |  | 48.4 |  | 50.9 |  | 35.3 |  | 49.9 |  | > 100
CCNCCNc1cc(-c2ccc(F)cc2)c(C#N)c2nc3ccccc3n12 | 2.31 | 5.86 | 2.93 | 9.43 | 2.86 | 7.58 | 3.15 | 12.5 | 2.15 | 4.64 | 2.73 | 7.69 | 13.5 | 26.4 | 4.52 | 15.8 | 13.6 | 26.7 | 4.01 | 14.9
COc1ccc(/C=C(\C#N)c2cc3ccccc3n2C)cc1 | 0.372 | > 100 | 0.407 | 5.03 | 0.388 | > 100 | 0.352 | > 100 | 0.178 | > 100 | 0.699 | > 100 | 0.787 | > 100 | 0.56 | > 100 | 0.765 | > 100 | 0.502 | > 100
C#Cc1ccc(NC(=O)c2ccc(/C=C/C(=O)c3nccn3C)cc2)cc1 | 0.28 | 1.6 | 0.518 | 1.37 | 0.115 | 0.672 | 0.853 | 11.9 | 0.136 | 6.55 | 0.761 | 2.71 | 0.979 | 24.3 | 0.717 | 8.79 | 0.565 | 1.45 | 0.597 | 1.57
CCNCC(O)c1ccc(N)c([N+](=O)[O-])c1 (centres undefined) |  | > 100 |  | > 100 |  | > 100 |  | > 100 |  | > 100 |  | > 100 |  | > 100 |  | > 100 |  | > 100 |  | > 100
Fc1ccc(-c2ncn(C3CCNCC3)c2-c2ccnc(Oc3cccc(F)c3)n2)cc1 | > 18 | > 25 | > 14.7 | > 25 | 24.6 | > 25 | > 12 | 24.8 | 6.7 | 16.5 | 9.99 | > 25 | > 22.1 | > 25 | > 25 | > 25 | > 25 | > 25 | > 21.3 | > 25
C[Se]C(=O)CC1=C2C=C(F)C=CC2/C(=C\c2ccc(S(C)=O)cc2)C1C (centres undefined) | 0.0461 | 1.21 | 0.404 | 2.92 | 2.31 | 6.15 | 0.0886 | 2.36 | 1.36 | > 100 | 0.0427 | 0.327 | 0.0493 | 1.58 | 0.0447 | > 100 | < 0.0113 | 0.0967 | 0.0187 | 1.16
O=[As](O)(O)c1ccc(Cc2ccc([As](=O)(O)O)cc2)cc1 |  | 3.21 |  | 1.44 |  | 0.984 |  | 12.4 |  | 3.68 |  | 2.3 |  | 6.19 |  | 1.35 |  | 2.88 |  | 1.17
N#Cc1nc(-c2ccccc2)oc1S(=O)(=O)N1CCOCC1 | 1.45 | 3.39 | 0.702 | 3 | 2.58 | 7.89 | 16.3 | 50 | 2.03 | > 100 | 14.1 | 29.9 | 56.2 | > 100 | 3.55 | 16.2 | 4.4 | 24.9 | 6.08 | 19.1
CC1OC(O)C(O)C(O)C1O (centres undefined) |  | > 100 |  | > 100 |  | > 100 |  | > 100 |  | > 100 |  | > 100 |  | > 100 |  | > 100 |  | > 100 |  | > 100
C[C@H]1[C@@H](OCC(CO[C@H]2O[C@@H]3O[C@@]4(C)CC[C@H]5[C@H](C)CC[C@@H]([C@H]2C)[C@@]35OO4)=NOCC(=O)O)OC2O[C@@]3(C)CC[C@H]4[C@H](C)CC[C@@H]1[C@@]24OO3 (some centres undefined) | < 0.01 | 0.891 | < 0.0151 | 11.4 | < 0.01 |  | 0.719 | 22.4 | < 0.01 | 17.5 | 0.12 | 2.41 | 0.786 | 19.6 | 0.0332 | 16.4 | 0.0982 | 22.2 | 10.8 | 28.1
